Results taken from PMC8457749, “Design, Synthesis, and Anticancer Activity Evaluation of Hybrids of Azoles and Barbituric Acids” (Iranian Journal of Pharmaceutical Research : IJPR, 2021).
Where two headings read alike, the source gives them in different places.

What was measured:
MCF-7 cells = assay: MTT antiproliferative assay, MCF-7; type: cell-based, human; conditions: for inhibition at 100 µM / IC50: Homo sapiens, MCF7, 48 h; for inhibition at 100 µM: read-out: Growth Inhibition at 100 μM (%) MCF-7; for IC50: read-out: IC50 MCF-7
Protocol: (§1) The antiproliferative activity of the target compounds against the panel of three different human cancer cell lines, liver (BEL-7402), colorectal (HCT-116), and breast (MCF-7) cell lines was evaluated using a standard MTT-based colorimetric assay. All cell lines were obtained from the Key Laboratory of Natural Resources and Functional Molecules of the Changbai Mountain (Yanbian University) and maintained in Dulbecco’s modified Eagle’s medium (DMEM) and RPMI Media 1640 (RPMI1640), supplemented with 10% foetal bovine serum (FBS) at 37 °C in a humidified atmosphere containing 5% CO2.
(§2) The cells were plated in 96-well plates at appropriate densities to ensure exponential growth throughout the experimental period (9 × 10^3 cells per well) and then allowed to adhere for 24 h. the cells were then treated for 48 h with each compound. After 48 h of incubation, 10 μL of MTT solution was added to each well to a final concentration of 2 mg/mL. the plates were then incubated for a further 4 h. After incubation, the MTT solution was removed and 150 μL of DMSO was added to each well for coloration. The plates were shaken vigorously for 10 min at room temperature to ensure complete solubilisation. The optometric density (OD) was read on a microplate reader (EL × 800, BioTek, Highland Park, Winooski, VT, USA) at 492 nm, and the data were subsequently analysed. The percentage of cell growth inhibition was calculated from the following Equation:
(§3) Inhibitory rate (%) = [1 − (ODtreated − ODblank)/(ODcontrol − ODblank)] × 100%
(§4) To obtain the antiproliferative activity of compounds 3a-3s and 4a-4d, the compounds were selected in the same way with four serial concentrations (1, 10, 50 and 100 μM) of those compounds. The optometric density (OD) reading was then used to calculate the IC50.

BEL-7402 cells = assay: MTT antiproliferative assay, BEL-7402; type: cell-based, human; conditions: for inhibition at 100 µM / IC50: Homo sapiens; for inhibition at 100 µM: read-out: Growth Inhibition at 100 μM (%) BEL-7402; for IC50: read-out: IC50 BEL-7402; for Selectivity index BEL-7402: IC50 on normal cells (L02)/IC50 on tumor cells (BEL-7402)
Protocol: as §1, §2, §3, §4

HCT-116 cells = assay: MTT antiproliferative assay, HCT-116; type: cell-based, human; conditions: for inhibition at 100 µM / IC50: Homo sapiens; for inhibition at 100 µM: read-out: Growth Inhibition at 100 μM (%) HCT-116; for IC50: read-out: IC50 HCT-116
Protocol: as §1, §2, §3, §4

L02 cells = assay: Antiproliferative activity against normal cell line L02; type: cell-based; conditions: Homo sapiens, L02, read-out: L02 IC50
Protocol: The lack of selective cytotoxicity is the main factor that restricts the dose of most conventional chemotherapeutic agents ([21]). […] Selectivity indexes between cancer cells and L02 cells were calculated.

SMILES	inhibition at 100 µM (MCF-7 cells) [%]	inhibition at 100 µM (BEL-7402 cells; Bel-7402, 48 h) [%]	melting point [°C]	inhibition at 100 µM (HCT-116 cells; HCT-116, 48 h) [%]	IC50 (MCF-7 cells) [µM]	Selectivity index MCF-7 (MCF-7 cells; IC50 on normal cells (L02)/IC50 on tumor cells (MCF-7))	IC50 (L02 cells) [µM]	IC50 (BEL-7402 cells; Bel-7402, 48 h) [µM]	Selectivity index BEL-7402 (BEL-7402 cells)	IC50 (HCT-116 cells; HCT-116, 48 h) [µM]	Selectivity index HCT-116 (HCT-116 cells; IC50 on normal cells (L02)/IC50 on tumor cells (HCT-116))	IC50 (BEL-7402 cells; Bel-7402, 48 h, MTT) [µM]	IC50 (HCT-116 cells; HCT-116, 48 h, MTT) [µM]
COc1ccccc1-n1cc(C=C2C(=O)NC(=O)NC2=O)nn1 [Compound 3m, 5-((1-(2-methoxyphenyl)-1H-1,2,3-triazol-4-yl)methylene)pyrimidine-2,4,6(1H,3H,5H)-trione]	7.9 ± 1.1	25.6 ± 2.1	250	44.2 ± 3.4	–	–	–	–	–	–	–	–	–
Cc1ccc(-n2cc(C=C3C(=O)NC(=O)NC3=O)nn2)cc1 [Compound 3r, 5-((1-p-tolyl-1H-1,2,3-triazol-4-yl)methylene)pyrimidine-2,4,6(1H,3H,5H)-trione]	< 5	39.8 ± 3.1	250	52.5 ± 2	–	–	–	–	–	–	–	–	–
O=C1NC(=O)C(=Cc2cn(Cc3ccccc3)c3ccccc23)C(=O)N1 [A, 5-((1-benzyl-1H-indol-3-yl)methylene)pyrimidine-2,4,6 (1H,3H,5H)-trione, reference compound]	11.8 ± 1	19.6 ± 2.1	–	26.2 ± 1.8	–	–	–	–	–	–	–	–	–
O=C1NC(=O)C(=Cc2cn(-c3cccc(Cl)c3)nn2)C(=O)N1 [Compound 3f, 5-((1-(3-chlorophenyl)-1H-1,2,3-triazol-4-yl)methylene)pyrimidine-2,4,6(1H,3H,5H)-trione]	58 ± 3.2	75.2 ± 3	250	79.3 ± 5.6	29.1 ± 0.34	3.22	93.9 ± 5.9	15.9 ± 1.32	5.89	14.9 ± 0.55	6.28	–	–
O=C1NC(=O)C(=Cc2cn(-c3cccc(F)c3)nn2)C(=O)N1 [Compound 3c, 5-((1-(3-fluorophenyl)-1H-1,2,3-triazol-4-yl)methylene)pyrimidine-2,4,6(1H,3H,5H)-trione]	34.6 ± 1.8	79 ± 3.9	250	48.4 ± 2.3	> 100	–	82.3 ± 4	12.2 ± 0.91	6.74	> 100	–	–	–
O=C1NC(=O)C(=Cc2cn(-c3ccc(Br)cc3)nn2)C(=O)N1 [Compound 3l, 5-((1-(4-bromophenyl)-1H-1,2,3-triazol-4-yl)methylene)pyrimidine-2,4,6(1H,3H,5H)-trione]	< 5	44.8 ± 3.8	250	49.8 ± 3.8	–	–	–	–	–	–	–	–	–
COc1ccc(-n2cc(C=C3C(=O)NC(=O)NC3=O)nn2)cc1 [Compound 3o, 5-((1-(4-methoxyphenyl)-1H-1,2,3-triazol-4-yl)methylene)pyrimidine-2,4,6(1H,3H,5H)-trione]	22.6 ± 2.7	28.4 ± 3.1	250	7.9 ± 0.6	–	–	–	–	–	–	–	–	–
Cc1nn(-c2cccc(F)c2)c(C)c1C=C1C(=O)NC(=O)NC1=O [Compound 4b, 5-((1-(3-fluorophenyl)-3,5-dimethyl-1H-pyrazol-4-yl)methylene)pyrimidine-2,4,6(1H,3H,5H)-trione]	< 5	14.7 ± 1.2	250	9.1 ± 1.2	–	–	–	–	–	–	–	–	–
O=C1NC(=O)C(=Cc2cn(-c3ccc(Cl)c(Cl)c3)nn2)C(=O)N1 [Compound 3i, 5-((1-(3,4-dichlorophenyl)-1H-1,2,3-triazol-4-yl)methylene)pyrimidine-2,4,6(1H,3H,5H)-trione]	14.2 ± 1.5	47.2 ± 4.7	250	69.3 ± 2.9	> 100	–	–	> 100	–	55.2 ± 2.31	–	–	–
COc1ccc(-n2cc(C=C3C(=O)NC(=O)NC3=O)nn2)cc1OC [Compound 3p, 5-((1-(3,4-dimethoxyphenyl)-1H-1,2,3-triazol-4-yl)methylene)pyrimidine-2,4,6(1H,3H,5H)-trione]	18.6 ± 1.7	38 ± 1.9	250	43.9 ± 2.9	–	–	–	–	–	–	–	–	–
O=C1NC(=O)C(=Cc2cn(-c3ccccc3Cl)nn2)C(=O)N1 [Compound 3e, 5-((1-(2-chlorophenyl)-1H-1,2,3-triazol-4-yl)methylene)pyrimidine-2,4,6(1H,3H,5H)-trione]	19.8 ± 1.5	39.6 ± 4.1	250	14.8 ± 0.9	–	–	–	–	–	–	–	–	–
Cc1ccc(-n2nc(C)c(C=C3C(=O)NC(=O)NC3=O)c2C)cc1 [Compound 4d, 5-((3,5-dimethyl-1-p-tolyl-1H-pyrazol-4-yl)methylene)pyrimidine-2,4,6(1H,3H,5H)-trione]	< 5	38.1 ± 1.3	250	28.4 ± 3	–	–	–	–	–	–	–	–	–
O=C1NC(=O)C(=Cc2cn(-c3ccccc3F)nn2)C(=O)N1 [Compound 3b, 5-((1-(2-fluorophenyl)-1H-1,2,3-triazol-4-yl)methylene)pyrimidine-2,4,6(1H,3H,5H)-trione]	27.5 ± 1.6	34.1 ± 4.3	250	67.6 ± 3.8	> 100	–	–	> 100	–	78.2 ± 2.34	–	–	–
Cc1nn(-c2cccc(Cl)c2)c(C)c1C=C1C(=O)NC(=O)NC1=O [Compound 4c, 5-((1-(3-chlorophenyl)-3,5-dimethyl-1H-pyrazol-4-yl)methylene)pyrimidine-2,4,6(1H,3H,5H)-trione]	15.5 ± 1.1	64 ± 2.1	250	58.7 ± 5.2	> 100	–	–	48.2 ± 0.78	–	47.5 ± 3.21	–	–	–
O=C1CC(=O)NC(=O)N1 [Barbituric acid]	< 5	11.7 ± 1	–	14.3 ± 2.2	> 100	–	–	> 100	–	> 100	–	–	–
O=C1NC(=O)C(=Cc2cn(-c3ccccc3Br)nn2)C(=O)N1 [Compound 3j, 5-((1-(2-bromophenyl)-1H-1,2,3-triazol-4-yl)methylene)pyrimidine-2,4,6(1H,3H,5H)-trione]	42.7 ± 2.6	36.8 ± 2.1	250	46.3 ± 3.4	–	–	–	–	–	–	–	–	–
O=c1[nH]cc(F)c(=O)[nH]1 [Compound 5-FU, 5-fluorouracil, reference compound]	–	–	–	–	–	–	–	–	–	–	–	21.3 ± 0.56	24.8 ± 0.78
O=C1NC(=O)C(=Cc2cn(-c3ccccc3)nn2)C(=O)N1 [Compound 3a, 5((1-phenyl-1H-1,2,3-triazol-4-yl)methylene)pyrimidine-2,4,6(1H,3H,5H)-trione]	30.9 ± 2.6	54 ± 3.4	250	42.7 ± 2.5	–	–	–	–	–	–	–	–	–
Cc1nn(-c2ccccc2)c(C)c1C=C1C(=O)NC(=O)NC1=O [Compound 4a, 5-((3,5-dimethyl-1-phenyl-1H-pyrazol-4-yl)methylene)pyrimidine-2,4,6(1H,3H,5H)-trione]	< 5	38.7 ± 1	250	30.9 ± 3.1	–	–	–	–	–	–	–	–	–
O=C1NC(=O)C(=Cc2cn(-c3ccc(F)cc3)nn2)C(=O)N1 [Compound 3d, 5-((1-(4-fluorophenyl)-1H-1,2,3-triazol-4-yl)methylene)pyrimidine-2,4,6(1H,3H,5H)-trione]	34.1 ± 2.3	31.9 ± 2.8	250	31.6 ± 1.9	–	–	–	–	–	–	–	–	–
COc1cccc(-n2cc(C=C3C(=O)NC(=O)NC3=O)nn2)c1 [Compound 3n, 5-((1-(3-methoxyphenyl)-1H-1,2,3-triazol-4-yl)methylene)pyrimidine-2,4,6(1H,3H,5H)-trione]	23.3 ± 3.5	36.7 ± 19	250	67.1 ± 5.6	> 100	–	–	> 100	–	30.7 ± 2.1	–	–	–
Cc1cccc(-n2cc(C=C3C(=O)NC(=O)NC3=O)nn2)c1 [Compound 3q, 5-((1-m-tolyl-1H-1,2,3-triazol-4-yl)methylene)pyrimidine-2,4,6(1H,3H,5H)-trione]	91.9 ± 2.4	23.7 ± 2.1	250	94.8 ± 6.3	29.8 ± 2.01	–	–	> 100	–	32.8 ± 1.9	–	–	–
